Experiments:
PI3Kα = PI3Kα (Homo sapiens (Human), UniProt P42336); conditions: read-out: PI3Kα AlphaScreen ® Ki
[1] = test system: phosphorylation of Akt at Serine 473 in U87 MG cells; test: cells; conditions: Homo sapiens, U-87 MG, 2 h, read-out: U87Cell IC50, pAkt (Ser 473), U87 MG cells, two hours with compound

Chain of PI3Kα (P42336 whole entry): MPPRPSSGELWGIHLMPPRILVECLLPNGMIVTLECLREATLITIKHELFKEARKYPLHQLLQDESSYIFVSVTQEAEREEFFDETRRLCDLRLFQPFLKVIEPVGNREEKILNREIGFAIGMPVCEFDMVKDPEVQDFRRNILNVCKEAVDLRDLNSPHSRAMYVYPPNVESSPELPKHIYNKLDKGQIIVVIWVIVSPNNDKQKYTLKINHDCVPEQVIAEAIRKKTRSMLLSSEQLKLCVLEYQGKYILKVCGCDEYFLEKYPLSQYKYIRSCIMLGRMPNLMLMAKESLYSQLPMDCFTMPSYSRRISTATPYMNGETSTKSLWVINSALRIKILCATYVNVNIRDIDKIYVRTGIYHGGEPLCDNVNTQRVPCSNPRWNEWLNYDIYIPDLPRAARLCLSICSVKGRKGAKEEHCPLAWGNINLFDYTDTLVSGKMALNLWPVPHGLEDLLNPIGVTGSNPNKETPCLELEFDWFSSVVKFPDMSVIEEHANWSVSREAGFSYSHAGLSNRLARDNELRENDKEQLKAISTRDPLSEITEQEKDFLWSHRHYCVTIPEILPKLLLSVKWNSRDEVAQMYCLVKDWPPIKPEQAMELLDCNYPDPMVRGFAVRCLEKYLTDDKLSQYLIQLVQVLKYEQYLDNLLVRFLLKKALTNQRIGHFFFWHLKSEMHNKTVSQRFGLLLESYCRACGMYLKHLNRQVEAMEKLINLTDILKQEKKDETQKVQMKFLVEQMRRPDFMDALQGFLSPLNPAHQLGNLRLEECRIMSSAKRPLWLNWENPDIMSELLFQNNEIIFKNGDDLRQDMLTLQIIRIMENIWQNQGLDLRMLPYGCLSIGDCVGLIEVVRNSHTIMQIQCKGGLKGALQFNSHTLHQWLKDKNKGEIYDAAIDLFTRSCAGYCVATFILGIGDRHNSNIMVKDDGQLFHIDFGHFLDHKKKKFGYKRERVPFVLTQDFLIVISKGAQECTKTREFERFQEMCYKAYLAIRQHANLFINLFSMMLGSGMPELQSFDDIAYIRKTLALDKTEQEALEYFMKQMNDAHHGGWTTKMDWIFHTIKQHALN
Chain of PI3Kα (P27986 whole entry partner): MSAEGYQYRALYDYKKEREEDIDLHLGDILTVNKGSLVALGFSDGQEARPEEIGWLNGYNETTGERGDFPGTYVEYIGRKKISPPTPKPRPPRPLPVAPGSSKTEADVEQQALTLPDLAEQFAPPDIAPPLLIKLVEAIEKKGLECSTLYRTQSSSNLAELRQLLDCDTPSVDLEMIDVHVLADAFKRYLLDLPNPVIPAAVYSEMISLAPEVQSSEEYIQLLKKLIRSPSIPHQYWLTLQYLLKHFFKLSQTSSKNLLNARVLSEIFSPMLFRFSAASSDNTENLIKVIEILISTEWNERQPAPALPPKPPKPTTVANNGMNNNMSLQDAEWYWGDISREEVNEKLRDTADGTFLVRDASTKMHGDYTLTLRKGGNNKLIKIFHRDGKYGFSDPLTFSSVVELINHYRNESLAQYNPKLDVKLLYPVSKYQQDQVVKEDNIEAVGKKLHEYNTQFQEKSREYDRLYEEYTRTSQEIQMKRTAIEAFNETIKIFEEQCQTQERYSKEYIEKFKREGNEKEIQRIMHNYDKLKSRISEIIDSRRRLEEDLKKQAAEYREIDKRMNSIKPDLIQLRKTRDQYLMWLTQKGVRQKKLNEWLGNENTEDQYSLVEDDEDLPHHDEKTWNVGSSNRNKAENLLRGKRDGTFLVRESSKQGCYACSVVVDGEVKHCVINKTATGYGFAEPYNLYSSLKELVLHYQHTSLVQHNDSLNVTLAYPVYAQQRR

Ki (PI3Kα) [nM] | IC50 [1] [nM] | SMILES
14 | 192 | Cc1nc(N)nc(-c2cc(-c3cnn(C)c3)cnc2Nc2cncc(F)c2)n1 [Example 258, 4-(2-(5-Fluoropyridin-3-Ylamino)-5-(1-Methyl-1H-Pyrazol-4-yl)Pyridin-3-yl)-6-Methyl-1,3,5-Triazin-2-Amine]
71 | 267 | COCCOc1cnc(Nc2cnc(C)c(NS(C)(=O)=O)c2)c(-c2nc(C)nc(N)n2)c1 [Example 376, N-(5-(3-(4-Amino-6-Methyl-1,3,5-Triazin-2-yl)-5-(2-Methoxyethoxy)Pyridin-2-Ylamino)-2-Methylpyridin-3-yl)Methanesulfonamide]
25 | 8 | COc1cc(Nc2ncc(C(C)(C)O)cc2-c2nc(C)nc(N)n2)cnc1Cl [Example 342, 2-(5-(4-Amino-6-Methyl-1,3,5-Triazin-2-yl)-6-(6-Chloro-5-Methoxypyridin-3-Ylamino)Pyridin-3-yl)Propan-2-ol]
44 | 20 | COc1ncc(Nc2ncc([C@H](C)N3CCOCC3)cc2-c2nc(C)nc(N)n2)cc1F (single isomer, unassigned) [Example 292]
45 | 24 | COc1ncc(Nc2ncc(C(C)(C)N)cc2-c2nc(C)nc(N)n2)cc1F [Example 278, 4-(5-(2-Aminopropan-2-yl)-2-(5-Fluoro-6-Methoxypyridin-3-Ylamino)Pyridin-3-yl)-6-Methyl-1,3,5-Triazin-2-Amine]
6 | 28 | COc1ccc(Nc2ncc(CN3CC(S(C)(=O)=O)C3)cc2-c2nc(C)nc(N)n2)cn1 [Example 223, 4-(2-(6-Methoxypyridin-3-Ylamino)-5-((3-(Methylsulfonyl)Azetidin-1-yl)Methyl)Pyridin-3-yl)-6-Methyl-1,3,5-Triazin-2-Amine]
504 | > 10000 | COc1ccc(Nc2nc(-c3ccc(F)cc3)ncc2-c2nc(C)nc(N)n2)cn1 [Example 125, 4-(2-(4-fluorophenyl)-4-(6-methoxypyridin-3-ylamino)pyrimidin-5-yl)-6-methyl-1,3,5-triazin-2-amine]

Continued, compound first:

SMILES | Ki (PI3Kα) [nM] | IC50 [1] [nM]
COc1ccc(Nc2ncc(N3CC[C@@H](O)C3)cc2-c2nc(C)nc3[nH]cnc23)cn1 [Example 206, (3R)-1-(6-((6-Methoxy-3-Pyridinyl)Amino)-5-(2-Methyl-9H-Purin-6-yl)-3-Pyridinyl)-3-Pyrrolidinol] | 68 | 387
COc1ncc(Nc2nc(CN3CCOCC3)ccc2-c2nc(C)nc(N)n2)cc1F [Example 198, 4-(2-(5-Fluoro-6-Methoxypyridin-3-Ylamino)-6-(Morpholinomethyl)Pyridin-3-yl)-6-Methyl-1,3,5-Triazin-2-Amine] | 276 | 219
COc1ccc(Nc2ncc(N3CCC[C@H]3CO)cc2-c2nc(C)nc3[nH]cnc23)cn1 [Example 100, ((2S)-1-(6-(6-Methoxypyridin-3-Ylamino)-5-(2-Methyl-9H-Purin-6-yl)Pyridin-3-yl)Pyrrolidin-2-yl)Methanol] | 29 | 192
COc1ccc(Nc2ncc(CNCc3ccncc3)cc2-c2nc(C)nc3[nH]cnc23)cn1 [Example 137, N-(6-methoxypyridin-3-yl)-3-(2-methyl-9H-purin-6-yl)-5-((pyridin-4-ylmethylamino)methyl)pyridin-2-amine] | 40 | 181
Cc1nc(N)nc(-c2cc(CN3CCNCC3)cnc2Nc2ccc3[nH]cnc3c2)n1 [Example 261, N-(3-(4-Amino-6-Methyl-1,3,5-Triazin-2-yl)-5-(Piperazin-1-Ylmethyl)Pyridin-2-yl)-1H-Benzo[D]Imidazol-5-Amine] | 69 | 2720
Cc1nc(N)nc(-c2cccnc2Nc2ccc3c(c2)OC(F)(F)O3)n1 [Example 168, 4-(2-(2,2-Difluorobenzo[D][1,3]Dioxol-5-Ylamino)Pyridin-3-yl)-6-Methyl-1,3,5-Triazin-2-Amine] | 610 | > 10000

Reference: patent publication US8772480B2, “Inhibitors of PI3 kinase and/or mTOR” (priority 2009, dated 2014)
